# Reference: patent US10155743B2, “Glutarimide derivatives, use thereof, pharmaceutical composition based thereon and methods for producing glutarimide derivatives” (OBSCHESTVO S OGRANICHENNOI OTVETSTVENNOSTIYU …, priority 2013, dated 2018)
# Legend:
# [1] = tested on: influenza virus strain A/California/07/09 (H1N1) pdm09; assay: animal or person; format: in vivo, white outbred female mice; conditions: unidentified influenza virus, H1N1, in Mus musculus, po, 336 h, read-out: Mortality rate, %
# [2] = tested on: hRV strain (GKV reg. No. 2730); assay: Antiviral activity against rhinovirus in mice (body weight, lung weight, infectious titer in lungs); format: in vivo; conditions: for Body weight of the mice after infection with hRV, day 0: 30 mg/kg orally once daily for 5 days starting 12 hours after infection; for Body weight of the mice after infection with hRV, day 1 / Body weight of the mice after infection with hRV, day 2 / Lung weight of the mice after infection with hRV, day 2 / Body weight of the mice after infection with hRV, day 3 / Lung weight of the mice after infection with hRV, day 3 / Body weight of the mice after infection with hRV, day 4 / Lung weight of the mice after infection with hRV, day 4: 30 mg/kg orally once daily; for Body weight of the mice after infection with hRV, day 1: day 1 after infection; for Body weight of the mice after infection with hRV, day 2 / Lung weight of the mice after infection with hRV, day 2: day 2 after infection; for Body weight of the mice after infection with hRV, day 3 / Lung weight of the mice after infection with hRV, day 3: day 3 after infection; for Body weight of the mice after infection with hRV, day 4 / Lung weight of the mice after infection with hRV, day 4: day 4 after infection; for Suppression of the reproduction of the virus in mouse lungs, Δ lg, Day 2 after infection / Suppression of the reproduction of the virus in mouse lungs, Δ lg, Day 3 after infection / Suppression of the reproduction of the virus in mouse lungs, Δ lg, Day 4 after infection / Infectious titer of the virus in lungs, lg TCID50, Day 2 after infection / Infectious titer of the virus in lungs, lg TCID50, Day 3 after infection / Infectious titer of the virus in lungs, lg TCID50, Day 4 after infection: 30 mg/kg orally; for Suppression of the reproduction of the virus in mouse lungs, Δ lg, Day 2 after infection / Suppression of the reproduction of the virus in mouse lungs, Δ lg, Day 3 after infection / Suppression of the reproduction of the virus in mouse lungs, Δ lg, Day 4 after infection: difference control minus experimental group; for Infectious titer of the virus in lungs, lg TCID50, Day 2 after infection / Infectious titer of the virus in lungs, lg TCID50, Day 3 after infection / Infectious titer of the virus in lungs, lg TCID50, Day 4 after infection: lung suspension titrated in Hela cell culture
# [3] = tested on: human respiratory syncytial virus (strain A2, ATCC VR-1540); format: in vivo; conditions: Balb/c mice, cyclophosphan 100 mg/kg 5 days before infection; 30 mg/kg once daily for 5 days from 24 h; score from possible 4; M ± SD, n = 5
# [4] = tested on: mucous membrane of nasal passages, formalin-induced acute rhinosinusitis; assay: Acute rhinosinusitis rat model (induced by intranasal 7.5% formalin solution); format: in vivo, Wistar rats; conditions: rats; for The number of caliciform cells within 1 mm of the mucous membrane of the nasal septum: tested compounds 27 mg/kg for 7 days after induction, M ± m; for Macroscopic changes in the mucous membrane of nasal passages: Muculent or mucopurulent catarrh (number of animals) / Macroscopic changes in the mucous membrane of nasal passages: Without changes (number of animals): tested compounds 27 mg/kg for 7 days, count out of n of the group
# Method: Morphological studies of histologic preparations were conducted with a Leica DMLS light-optical microscope (Leica Microsystems, Germany). Micro-morphometric assessment was performed by using an ocular micrometer on a Leica DMLB microscope.
# Acute rhinosinusitis was induced by intranasal administration of 20 μl of 7.5% formalin solution (aqueous solution comprising 40% formaldehyde, 8% methyl alcohol, and 52% water) to each nasal passage of rats.
# Administration of formalin to rat nasal passages leads to the dissemination of inflammation to adjacent tissues, resulting in a clinical pattern similar to the symptoms of rhinosinusitis in a human.
# After an acclimatization period, the following groups were formed: • intact animals administered intragastrically a saline solution in an amount of 0.2 ml, the induction of acute rhinosinusitis was not performed; • a control group consisted of the animals administered intragastrically a saline solution in an amount of 0.2 ml for 7 days after induction of acute rhinosinusitis; • animals administered intramuscularly dexamethasone at a dose of 0.33 mg/kg for 7 days after induction of acute rhinosinusitis; and • animals administered the tested compounds at a dose of 27 mg/kg for 7 days after induction of acute rhinosinusitis.
# Clinical observation of each animal was performed every day at least twice daily.
# In the experiment with Wistar rats, the induction of acute rhinosinusitis by administration of a 7.5% formalin solution to nasal passages caused in the control group of animals pronounced pathological changes characterizing the development of an acute inflammation process in the nasal mucous. The caused pathology was characterized by congestion, hyperplasia, focal necrosis of the nasal meatus mucous membrane, an increased number of caliciform cells, pronounced infiltration by mononuclear cells and leucocytes, and mucus hyperproduction by submucosal glands.
# The mucous and submucous membranes of both nasal passages (respiratory and olfactory regions) of the experimental animals were subjected to a morphological analysis to evaluate a specific activity of the compounds.
# For microscopic examination, the sections were stained with hematoxylin and eosin. Detection of acid mukopolysaccharides, the production of which is increased in an inflammation, was performed by histochemical staining of the preparation with Alcian Blue (pH 2.5). The comparison and histological evaluation of changes were performed versus the group of intact rats.
# After slaughter, the gross appearance of inflammation in the nasal passages was studied in each animal. Histological, hystochemical and morphological studies of rats were intended to evaluate the following characteristics of nasal passages: congestion of the mucous membrane; hyperplasia and necrosis of nasal epithelium, the number of caliciform cells within 1 mm of the mucous membrane of the nasal septum, and the character of inflammation.
# In this study, the efficiency of the mucociliary system was evaluated by the number of caliciform cells and, as a consequence, microscopic changes in the mucous membrane of the nasal passages.
# [5] = tested on: Coxsackie A2-virus (strain HCXV A2); assay: Antiviral activity against Coxsackie virus in vivo (mortality of infected mice); set-up: species or system white mice; conditions: mice; for inhibition in vivo at 30 mg/kg / mortality at 30 mg/kg: Mus musculus, po; for inhibition in vivo at 30 mg/kg: 168 h, read-out: Protective index (%); for inhibition in vivo at 30 mg/kg / Average expectancy life (days), Relative / Average expectancy life (days), Vs. control: 10LD50 HCXV A2, 30 mg/kg orally once daily for 7 days; for mortality at 30 mg/kg: 360 h, 10LD50 HCXV A2 i.m., 30 mg/kg orally once daily for 7 days from 24 h after infection, 15 days monitoring, read-out: Total mortality rate, %; for Average expectancy life (days), Vs. control: difference to virus control
smiles,measurement,setting,value
O=C1CCCC(=O)N1CCC1CCCN1 (stereo not drawn) [Compound 4],mortality at 30 mg/kg,[1],65%
same,"Body weight of the mice after infection with hRV, day 0",[2],7.77 ± 1.02
same,"Body weight of the mice after infection with hRV, day 1",[2],7.27 ± 1.27
same,"Body weight of the mice after infection with hRV, day 2",[2],12.66 ± 2.32
same,"Lung weight of the mice after infection with hRV, day 2",[2],142 ± 4.81
same,"Body weight of the mice after infection with hRV, day 3",[2],13.14 ± 1.5
same,"Lung weight of the mice after infection with hRV, day 3",[2],135.9 ± 4.18
same,"Body weight of the mice after infection with hRV, day 4",[2],13.23 ± 1.38
same,"Lung weight of the mice after infection with hRV, day 4",[2],134.2 ± 3.68
same,"Suppression of the reproduction of the virus in mouse lungs, Δ lg, Day 2 after infection",[2],1.65 ± 0.65 Δ lg
same,"Suppression of the reproduction of the virus in mouse lungs, Δ lg, Day 3 after infection",[2],1.9 ± 0.27 Δ lg
same,"Suppression of the reproduction of the virus in mouse lungs, Δ lg, Day 4 after infection",[2],2.2 ± 4.68 Δ lg
same,"Infectious titer of the virus in lungs, lg TCID50, Day 2 after infection",[2],2.35 ± 0.65 lg TCID50
same,"Infectious titer of the virus in lungs, lg TCID50, Day 3 after infection",[2],0.6 ± 0.27 lg TCID50
same,"Infectious titer of the virus in lungs, lg TCID50, Day 4 after infection",[2],0 ± 0 lg TCID50
same,"Degree of pulmonary edema on day 5 after infection, score",[3],1.95 ± 0.31 score
O=C1CCCC(=O)N1CCc1nccs1 [Compound 6],The number of caliciform cells within 1 mm of the mucous membrane of the nasal septum,[4],36.5 ± 0.8
same,Macroscopic changes in the mucous membrane of nasal passages: Muculent or mucopurulent catarrh (number of animals),[4],4
same,Macroscopic changes in the mucous membrane of nasal passages: Without changes (number of animals),[4],2
same,"Degree of pulmonary edema on day 5 after infection, score",[3],0.90 ± 0.22 score
Cn1cnc(CCN2C(=O)CCCC2=O)c1 [Compound 5],mortality at 30 mg/kg,[1],45%
same,"Degree of pulmonary edema on day 5 after infection, score",[3],1.10 ± 0.19 score
CC1(C)CCC(=O)N(CCc2c[nH]cn2)C1=O [Compound 20],mortality at 30 mg/kg,[1],50%
same,Macroscopic changes in the mucous membrane of nasal passages: Muculent or mucopurulent catarrh (number of animals),[4],4
same,Macroscopic changes in the mucous membrane of nasal passages: Without changes (number of animals),[4],4
O=C1CCCC(=O)N1CCC1CCNCC1 [Compound 123],"Degree of pulmonary edema on day 5 after infection, score",[3],1.30 ± 0.17 score
O=C1CCCC(=O)N1CCN1CCCC1 [Compound 23],mortality at 30 mg/kg,[1],40%
same,inhibition in vivo at 30 mg/kg,[5],36%
same,mortality at 30 mg/kg,[5],50%
same,"Average expectancy life (days), Relative",[5],23.8 days
same,"Average expectancy life (days), Vs. control",[5],+13.1 days
O=C1CCCC(=O)N1CCc1cn[nH]n1 [Compound 35],mortality at 30 mg/kg,[1],55%
same,inhibition in vivo at 30 mg/kg,[5],27%
same,mortality at 30 mg/kg,[5],53.3%
same,"Average expectancy life (days), Relative",[5],16.6 days
same,"Average expectancy life (days), Vs. control",[5],+5.9 days
CC1(C)CC(=O)N(CCc2cnc[nH]2)C(=O)C1 [Compound 3],The number of caliciform cells within 1 mm of the mucous membrane of the nasal septum,[4],35.8 ± 0.9
same,Macroscopic changes in the mucous membrane of nasal passages: Muculent or mucopurulent catarrh (number of animals),[4],7
same,Macroscopic changes in the mucous membrane of nasal passages: Without changes (number of animals),[4],5
same,"Degree of pulmonary edema on day 5 after infection, score",[3],1.6 ± 0.89 score
O=C1CCCC(=O)N1CCC1CCCNC1 (stereo not drawn) [Compound 121],"Degree of pulmonary edema on day 5 after infection, score",[3],0.90 ± 0.21 score
O=C1CCCC(=O)N1CCC1CCNC1 (stereo not drawn) [Compound 120],"Degree of pulmonary edema on day 5 after infection, score",[3],1.05 ± 0.14 score
"O=C1CCCC(=O)N1CCc1cnc[nH]1 [Compound 1, 1-(2-(1H-imidazol-4-yl)ethyl)piperidine-2,6-dione]",mortality at 30 mg/kg,[1],35%
same,The number of caliciform cells within 1 mm of the mucous membrane of the nasal septum,[4],31.2 ± 1.2
same,Macroscopic changes in the mucous membrane of nasal passages: Muculent or mucopurulent catarrh (number of animals),[4],13
same,Macroscopic changes in the mucous membrane of nasal passages: Without changes (number of animals),[4],5
same,"Body weight of the mice after infection with hRV, day 0",[2],7.36 ± 0.97
same,"Body weight of the mice after infection with hRV, day 1",[2],8.2 ± 4.25
same,"Body weight of the mice after infection with hRV, day 2",[2],13.03 ± 3.51
same,"Lung weight of the mice after infection with hRV, day 2",[2],136.9 ± 5.93
same,"Body weight of the mice after infection with hRV, day 3",[2],13.47 ± 1.36
same,"Lung weight of the mice after infection with hRV, day 3",[2],140.8 ± 5.14
same,"Body weight of the mice after infection with hRV, day 4",[2],13.99 ± 1.53
same,"Lung weight of the mice after infection with hRV, day 4",[2],128.2 ± 5.81
same,"Suppression of the reproduction of the virus in mouse lungs, Δ lg, Day 2 after infection",[2],1.1 ± 0.49 Δ lg
same,"Suppression of the reproduction of the virus in mouse lungs, Δ lg, Day 3 after infection",[2],1.7 ± 0.31 Δ lg
same,"Suppression of the reproduction of the virus in mouse lungs, Δ lg, Day 4 after infection",[2],2.18 ± 0.08 Δ lg
same,"Infectious titer of the virus in lungs, lg TCID50, Day 2 after infection",[2],2.9 ± 0.49 lg TCID50
same,"Infectious titer of the virus in lungs, lg TCID50, Day 3 after infection",[2],0.8 ± 0.31 lg TCID50
same,"Infectious titer of the virus in lungs, lg TCID50, Day 4 after infection",[2],0.03 ± 0.08 lg TCID50
same,"Degree of pulmonary edema on day 5 after infection, score",[3],1.3 ± 0.27 score
O=C1CCCC(=O)N1CCc1ccncc1 [Compound 9],"Degree of pulmonary edema on day 5 after infection, score",[3],1.00 ± 0.17 score
O=C1CCCC(=O)N1CCc1ccsc1 [Compound 12],mortality at 30 mg/kg,[1],60%
same,inhibition in vivo at 30 mg/kg,[5],45%
same,mortality at 30 mg/kg,[5],40%
same,"Average expectancy life (days), Relative",[5],24.9 days
same,"Average expectancy life (days), Vs. control",[5],+14.2 days
O=C1CCCC(=O)N1CCn1ccnc1 [Compound 30],mortality at 30 mg/kg,[1],50%
same,inhibition in vivo at 30 mg/kg,[5],18%
same,mortality at 30 mg/kg,[5],60%
same,"Average expectancy life (days), Relative",[5],13.1 days
same,"Average expectancy life (days), Vs. control",[5],+2.4 days
